Legend:
[1] = wn = mass fraction of the nth substance listed; conditions: Wilhelmy Plate
[2] = Wilhelmy Plate

CCCCn1cc[n+](C)c1.NCC(=O)[O-] [1-butyl-3-methylimidazolium glycinate] + O
surface tension liquid-gas [mN/m], [1]
Conditions	w1 = 0.025	w1 = 0.05	w1 = 0.075	w1 = 0.1	w1 = 0.15	w1 = 0.2	w1 = 0.4	w1 = 0.6	w1 = 0.8	w1 = 1
303.2 K	59.4	56.7	53.6	50.7	48.3	46.8	46	45.5	44.7	42.9
308.2 K	56.8	54.3	51.6	49.2	47.3	45.9	45.3	44.9	44.1	42.6
313.2 K	54.1	51.9	49.5	47.7	46.2	45	44.6	44.3	43.5	42.4
318.2 K	51.5	49.6	47.8	46.4	45.1	44.2	43.8	43.4	42.8	42.1
323.2 K	48.9	47.3	46.1	45.1	44	43.4	43	42.6	42.1	41.7

C[N+](C)(C)C.NCC(=O)[O-] [tetramethylammonium glycinate]
[2]
Conditions	surface tension liquid-gas [mN/m]
303.2 K	56.2
308.2 K	55.6
313.2 K	55.1
318.2 K	54.5
323.2 K	53.9

C[N+](C)(C)C.NCC(=O)[O-] [tetramethylammonium glycinate] + O
surface tension liquid-gas [mN/m], [1]
Conditions	w1 = 0.025	w1 = 0.05	w1 = 0.075	w1 = 0.1	w1 = 0.15	w1 = 0.2	w1 = 0.4	w1 = 0.6	w1 = 0.8	w1 = 1
303.2 K	67.8	65.4	64.1	62.7	61.6	60.2	58.5	57.6	56.9	56.2
308.2 K	66.6	64.3	62.9	61.6	60.6	59.5	57.8	56.9	56.3	55.6
313.2 K	65.4	63.3	62.2	60.6	59.7	58.8	57.1	56.2	55.8	55.1
318.2 K	64.3	62.5	61	59.8	58.9	58.1	56.5	55.8	55.2	54.5
323.2 K	62.3	61.1	60	58.7	57.9	57.1	56	55.4	54.6	53.9
